From US20050090651A1, “Polymeric compounds” (AdProTech Limited Cesterford Research Park, Little …, priority 2001, published 2005)
Where a SMILES comes first, the peptide text is derived from it. The star is where a group is joined. Myristoyl = CCCCCCCCCCCCCC(=O)*

Assay: Solubility of the lyophilised peptide
Assay type: physicochemical
Experimental: The crude peptide was desalted via gel filtration (Sephadex G10, 0.1% TFA in water) before purification by preparative C18 Vydac) high performance liquid chromatography (HPLC) using 0.1% trifluoroacetic acid and 0.1% trifluoroacetic acid/90% acetonitrile as gradient components. After lyophilisation, the peptide was a white amorphous powder, soluble to at least 10 mg/mL in both dimethylsulfoxide and water. Fast atom bombardment spectrometry gave a main peak at 2101 amu corresponding to the molecular ion of the peptide.

solubility (in dimethylsulfoxide): ≥ 10000 µg/mL
solubility (in water): ≥ 10000 µg/mL
Compound: CCCCCCCCCCCCCC(=O)NCC(=O)N[C@@H](CO)C(=O)N[C@@H](CO)C(=O)N[C@@H](CCCCN)C(=O)N[C@@H](CO)C(=O)N1CCC[C@H]1C(=O)N[C@@H](CO)C(=O)N[C@@H](CCCCN)C(=O)N[C@@H](CCCCN)C(=O)N[C@@H](CC(=O)O)C(=O)N[C@@H](CC(=O)O)C(=O)N[C@@H](CCCCN)C(=O)N[C@@H](CCCCN)C(=O)N1CCC[C@H]1C(=O)NCC(=O)N[C@@H](CC(=O)O)C(=O)N[C@@H](CCCCNC(=O)[C@@H](N)CS)C(N)=O [MSWP2278, Myristoyl-Gly-Ser-Ser-Lys-Ser-Pro-Ser-Lys-Lys-Asp-Asp-Lys-Lys-Pro-Gly-Asp-(ε-amino-cysteinyl carboxamide)-Lys-NH2] (Myristoyl-GSSKSPSKKDDKKPGDK(Cys)-NH2)
